The text below walks through data of patent US20230092890A1, “1, 3, 4-Oxadiazole derivative compounds as histone deacetylase 6 inhibitor, and the pharmaceutical composition comprising the same” (Chong Kun Dang Pharmaceutical Corp., priority 2019, published 2023).

One assay deals with T1, HDAC1 (Homo sapiens, UniProt Q13547).
T1 construct: purchased Enzolifesciences BML-AK511
The assay can be described thus: HDAC enzyme activity inhibition (in vitro), HDAC1 Fluorimetric Drug Discovery Assay Kit. Conditions: samples at 100, 1000 and 10000 nM; 37° C. 60 minutes; fluorescence Ex 390, Em 460; read-out: HDAC1 IC50. The assay is classed as biochemical. In a few lines: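 Compounds at 100, 1000, 10000 nM (HDAC1) or 0.1, 1, 10, 100, 1000 nM (HDAC6); 37° C, 60 min; developer, 37° C, 30 min; fluorescence Ex 390/Em 460.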

The next assay deals with T2, HDAC6 human recombinant (Homo sapiens, UniProt Q9UBN7).
T2 construct: purchased Calbiochem 382180
T2 sequence (Q9UBN7 1-1215): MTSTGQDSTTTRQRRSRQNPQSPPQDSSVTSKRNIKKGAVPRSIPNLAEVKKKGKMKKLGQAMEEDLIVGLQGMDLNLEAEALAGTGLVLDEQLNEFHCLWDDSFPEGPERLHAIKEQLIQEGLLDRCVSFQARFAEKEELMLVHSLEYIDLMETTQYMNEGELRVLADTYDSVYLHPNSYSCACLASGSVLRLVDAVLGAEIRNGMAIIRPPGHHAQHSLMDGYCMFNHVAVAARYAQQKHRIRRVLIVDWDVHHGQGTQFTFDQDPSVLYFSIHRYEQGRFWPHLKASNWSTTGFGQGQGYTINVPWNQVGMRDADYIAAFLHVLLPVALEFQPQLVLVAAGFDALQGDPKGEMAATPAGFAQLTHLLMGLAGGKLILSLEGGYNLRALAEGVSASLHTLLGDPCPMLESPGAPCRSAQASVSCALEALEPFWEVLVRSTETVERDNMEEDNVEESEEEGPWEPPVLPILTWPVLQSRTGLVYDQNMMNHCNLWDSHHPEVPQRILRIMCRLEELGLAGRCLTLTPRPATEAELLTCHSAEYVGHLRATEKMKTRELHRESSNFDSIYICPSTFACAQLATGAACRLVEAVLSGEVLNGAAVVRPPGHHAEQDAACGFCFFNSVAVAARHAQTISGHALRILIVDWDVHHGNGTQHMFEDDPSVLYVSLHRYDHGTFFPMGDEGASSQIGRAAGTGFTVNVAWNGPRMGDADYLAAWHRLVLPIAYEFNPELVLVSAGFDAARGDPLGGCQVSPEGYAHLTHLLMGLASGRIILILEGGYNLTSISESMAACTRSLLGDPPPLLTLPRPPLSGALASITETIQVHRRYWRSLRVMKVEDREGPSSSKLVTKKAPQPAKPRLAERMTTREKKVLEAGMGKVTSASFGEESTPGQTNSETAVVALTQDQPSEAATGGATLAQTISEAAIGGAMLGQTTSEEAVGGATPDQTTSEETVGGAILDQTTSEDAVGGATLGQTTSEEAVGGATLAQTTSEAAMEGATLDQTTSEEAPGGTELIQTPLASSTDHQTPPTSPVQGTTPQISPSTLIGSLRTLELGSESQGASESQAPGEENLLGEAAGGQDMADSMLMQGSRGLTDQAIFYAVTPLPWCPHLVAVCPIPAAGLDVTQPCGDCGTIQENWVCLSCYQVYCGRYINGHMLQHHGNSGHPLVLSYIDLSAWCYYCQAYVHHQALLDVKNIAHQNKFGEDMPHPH
Put plainly: HDAC enzyme activity inhibition (in vitro), HDAC6 assay. The assay is classed as biochemical. The conditions noted are these: samples at 0.1, 1, 10, 100 and 1000 nM; 37° C. 60 minutes; fluorescence Ex 390, Em 460; read-out: HDAC6 IC50. In a few lines:
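HDAC6 human recombinant enzyme with fluorimetric substrate; […]. Reaction 60 min at 37° C, then developer 30 min at 37° C; fluorescence read at Ex 390/Em 460.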

Molecules are shown by their SMILES. Some results are limits rather than exact numbers.

T1 sequence (Q13547 whole entry): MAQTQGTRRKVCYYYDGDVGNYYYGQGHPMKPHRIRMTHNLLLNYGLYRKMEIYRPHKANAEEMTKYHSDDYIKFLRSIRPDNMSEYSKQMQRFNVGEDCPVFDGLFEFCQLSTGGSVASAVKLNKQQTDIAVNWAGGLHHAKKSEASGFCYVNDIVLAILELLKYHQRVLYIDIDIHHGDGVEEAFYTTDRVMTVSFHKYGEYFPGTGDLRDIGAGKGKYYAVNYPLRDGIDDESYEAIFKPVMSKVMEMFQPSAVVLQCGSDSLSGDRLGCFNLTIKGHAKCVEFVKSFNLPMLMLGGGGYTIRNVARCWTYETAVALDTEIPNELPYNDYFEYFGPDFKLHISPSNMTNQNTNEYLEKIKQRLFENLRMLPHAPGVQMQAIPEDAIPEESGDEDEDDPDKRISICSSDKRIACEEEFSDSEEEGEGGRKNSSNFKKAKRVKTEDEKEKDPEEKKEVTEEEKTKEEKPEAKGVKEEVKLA

`CC(C)(C)OC(=O)n1ccc2cc(-c3ccc4c(c3)sc(=O)n4Cc3ccc(-c4nnc(C(F)F)o4)cn3)ccc21` [Compound 237, tert-butyl 5-(3-((5-(5-(difluoromethyl)-1,3,4-oxadiazole-2-yl)pyridine-2-yl)methyl)-2-oxo-2,3-dihydrobenzo[d]thiazole-6-yl)-1H-indole-1-carboxylate]: the IC50 on HDAC1 is more than 10000 nM; at HDAC6 human recombinant, 1140 nM.
The like results for `CC(C)(C)OC(=O)N1CC=C(c2ccc3c(c2)sc(=O)n3Cc2ccc(-c3nnc(C(F)F)o3)cn2)CC1` [Compound 238, tert-butyl 4-(3-((5-(5-(difluoromethyl)-1,3,4-oxadiazole-2-yl)pyridine-2-yl)methyl)-2-oxo-2,3-dihydrobenzo[d]thiazole-6-yl)-3,6-dihydropyridine-1(2H)-carboxylate] were, in that order, more than 10000 nM and 203 nM.
For `O=c1n(Cc2ccc(-c3nnc(C(F)F)o3)cn2)c2cc(F)c(-c3cccc4[nH]ccc34)cc2n1C1CCN(CC(F)(F)F)CC1` [Compound 239, 1-((5-(5-(difluoromethyl)-1,3,4-oxadiazole-2-yl)pyridine-2-yl)methyl)-6-fluoro-5-(1H-indole-4-yl)-3-(1-(2,2,2-trifluoroethyl)piperidine-4-yl)-1,3-dihydro-2H-benzo[d]imidazole-2-one], the IC50 on HDAC1 was more than 10000 nM; on HDAC6 human recombinant, 51 nM.
The like results for `O=c1n(Cc2ccc(-c3nnc(C(F)F)o3)cn2)c2cc(F)c(-c3cccnc3)cc2n1C1CCN(CC(F)(F)F)CC1` [Compound 240, 1-((5-(5-(difluoromethyl)-1,3,4-oxadiazole-2-yl)pyridine-2-yl)methyl)-6-fluoro-5-(pyridine-3-yl)-3-(1-(2,2,2-trifluoroethyl)piperidine-4-yl)-1,3-dihydro-2H-benzo[d]imidazole-2-one] were, in that order, more than 10000 nM and 27 nM.
Turning to `O=c1n(Cc2ccc(-c3nnc(C(F)F)o3)cn2)c2cc(F)c(-c3cccc4[nH]ccc34)cc2n1C1CCN(CC(F)(F)C(F)F)CC1` [Compound 241, 1-((5-(5-(difluoromethyl)-1,3,4-oxadiazole-2-yl)pyridine-2-yl)methyl)-6-fluoro-5-(1H-indole-4-yl)-3-(1-(2,2,3,3-tetrafluoropropyl)piperidine-4-yl)-1,3-dihydro-2H-benzo[d]imidazole-2-one], the IC50 on HDAC1 was more than 10000 nM; on HDAC6 human recombinant, 94 nM.
Consider `O=c1n(Cc2ccc(-c3nnc(C(F)F)o3)cn2)c2cc(F)c(-c3cccnc3)cc2n1C1CCN(CC(F)(F)C(F)F)CC1` [Compound 242, 1-((5-(5-(difluoromethyl)-1,3,4-oxadiazole-2-yl)pyridine-2-yl)methyl)-6-fluoro-5-(pyridine-3-yl)-3-(1-(2,2,3,3-tetrafluoropropyl)piperidine-4-yl)-1,3-dihydro-2H-benzo[d]imidazole-2-one], for which the IC50 was more than 10000 nM at HDAC1 and 46 nM on HDAC6 human recombinant.
For the compound `O=C(CO)N1CCC(n2c(=O)n(Cc3ccc(-c4nnc(C(F)F)o4)cn3)c3cc(Cl)ccc32)CC1` [Compound 243, 5-chloro-3-((5-(5-(difluoromethyl)-1,3,4-oxadiazole-2-yl)pyridine-2-yl)methyl)-1-(1-(2-hydroxyacetyl)piperidine-4-yl)-1,3-dihydro-2H-benzo[d]imidazole-2-one], the IC50 was more than 10000 nM on HDAC1 and 17 nM on HDAC6 human recombinant.
The like results for `COC(=O)c1cc2ccc(-c3ccc4c(c3)n(C)c(=O)n4Cc3ccc(-c4nnc(C(F)F)o4)cn3)cc2[nH]1` [Compound 244, methyl 6-(1-((5-(5-(difluoromethyl)-1,3,4-oxadiazole-2-yl)pyridine-2-yl)methyl)-3-methyl-2-oxo-2,3-dihydro-1H-benzo[d]imidazole-5-yl)-1H-indole-2-carboxylate] were, in that order, more than 10000 nM and 74 nM.
The like results for `O=c1oc2ccccc2n1Cc1ccc(-c2nnc(C(F)F)o2)cc1F` [Compound 245, 3-(4-(5-(difluoromethyl)-1,3,4-oxadiazole-2-yl)-2-fluorobenzyl)benzo[d]oxazole-2(3H)-one] were, in that order, more than 10000 nM and 684 nM.
In the same order, the values of `O=c1oc2ccccc2n1Cc1ccc(-c2nnc(C(F)F)o2)cn1` [Compound 246, 3-((5-(5-(difluoromethyl)-1,3,4-oxadiazole-2-yl)pyridine-2-yl)methyl)benzo[d]oxazole-2(3H)-one] are more than 10000 nM and 23 nM.
Regarding `Cn1c(=O)n(Cc2ccc(-c3nnc(C(F)F)o3)cn2)c2ccc(-c3cn[nH]c3)cc21` [Compound 247, 1-((5-(5-(difluoromethyl)-1,3,4-oxadiazole-2-yl)pyridine-2-yl)methyl)-3-methyl-5-(1H-pyrazole-4-yl)-1,3-dihydro-2H-benzo[d]imidazole-2-one], the figures for the IC50 on HDAC1 and on HDAC6 human recombinant were more than 10000 nM and 9 nM, respectively.
The like results for `CN1CCC(n2c(=O)n(Cc3ccc(-c4nnc(C(F)F)o4)cn3)c3cc(F)c(-c4cn[nH]c4)cc32)CC1` [Compound 248, 1-((5-(5-(difluoromethyl)-1,3,4-oxadiazole-2-yl)pyridine-2-yl)methyl)-6-fluoro-3-(1-methylpiperidine-4-yl)-5-(1H-pyrazole-4-yl)-1,3-dihydro-2H-benzo[d]imidazole-2-one] were, in that order, more than 10000 nM and 6 nM.
The like results for `CN1CCC(n2c(=O)n(Cc3ccc(-c4nnc(C(F)F)o4)cn3)c3cc(F)c(-c4ccnn4C)cc32)CC1` [Compound 249, 1-((5-(5-(difluoromethyl)-1,3,4-oxadiazole-2-yl)pyridine-2-yl)methyl)-6-fluoro-5-(1-methyl-1H-pyrazole-5-yl)-3-(1-methylpiperidine-4-yl)-1,3-dihydro-2H-benzo[d]imidazole-2-one] were, in that order, more than 10000 nM and 18 nM.
In the same order, the values of `CN1CCC(n2c(=O)n(Cc3ccc(-c4nnc(C(F)F)o4)cn3)c3cc(F)c(-c4ccc5c(ccn5C)c4)cc32)CC1` [Compound 250, 1-((5-(5-(difluoromethyl)-1,3,4-oxadiazole-2-yl)pyridine-2-yl)methyl)-6-fluoro-5-(1-methyl-1H-indole-5-yl)-3-(1-methylpiperidine-4-yl)-1,3-dihydro-2H-benzo[d]imidazole-2-one] are more than 10000 nM and 18 nM.
Consider `CN1CCC(n2c(=O)n(Cc3ccc(-c4nnc(C(F)F)o4)cn3)c3cc(F)c(-c4ccc5c(ccn5C(=O)OC(C)(C)C)c4)cc32)CC1` [Compound 251, tert-butyl 5-(1-((5-(5-(difluoromethyl)-1,3,4-oxadiazole-2-yl)pyridine-2-yl)methyl)-6-fluoro-3-(1-methylpiperidine-4-yl)-2-oxo-2,3-dihydro-1H-benzo[d]imidazole-5-yl)-1H-indole-1-carboxylate], for which the half-maximal inhibitory concentration (IC50) at HDAC1 is more than 10000 nM; at HDAC6 human recombinant, 374 nM.
Take `Cc1cc2cc(-c3cc4c(cc3F)n(Cc3ccc(-c5nnc(C(F)F)o5)cn3)c(=O)n4C3CCN(C)CC3)ccc2n1C(=O)OC(C)(C)C` [Compound 252, tert-butyl 5-(1-((5-(5-(difluoromethyl)-1,3,4-oxadiazole-2-yl)pyridine-2-yl)methyl)-6-fluoro-3-(1-methylpiperidine-4-yl)-2-oxo-2,3-dihydro-1H-benzo[d]imidazole-5-yl)-2-methyl-1H-indole-1-carboxylate]: the results for the IC50 on HDAC1 and on HDAC6 human recombinant were more than 10000 nM and 207 nM, respectively.

Usually IC50 stands for the concentration that gives 50% inhibition.
